The target in this assay is Proto-oncogene tyrosine-protein kinase Src (Homo sapiens, UniProt P12931). In words: ChEBML_202783. The procedure: The compound was evaluated for its binding affinity towards phosphotyrosine binding pocket of Src protein tyrosine kinase SH2 domain

A value given as a limit tells only on which side of the number the result lay.

Chain of Proto-oncogene tyrosine-protein kinase Src (P12931 2-536 limits assumed): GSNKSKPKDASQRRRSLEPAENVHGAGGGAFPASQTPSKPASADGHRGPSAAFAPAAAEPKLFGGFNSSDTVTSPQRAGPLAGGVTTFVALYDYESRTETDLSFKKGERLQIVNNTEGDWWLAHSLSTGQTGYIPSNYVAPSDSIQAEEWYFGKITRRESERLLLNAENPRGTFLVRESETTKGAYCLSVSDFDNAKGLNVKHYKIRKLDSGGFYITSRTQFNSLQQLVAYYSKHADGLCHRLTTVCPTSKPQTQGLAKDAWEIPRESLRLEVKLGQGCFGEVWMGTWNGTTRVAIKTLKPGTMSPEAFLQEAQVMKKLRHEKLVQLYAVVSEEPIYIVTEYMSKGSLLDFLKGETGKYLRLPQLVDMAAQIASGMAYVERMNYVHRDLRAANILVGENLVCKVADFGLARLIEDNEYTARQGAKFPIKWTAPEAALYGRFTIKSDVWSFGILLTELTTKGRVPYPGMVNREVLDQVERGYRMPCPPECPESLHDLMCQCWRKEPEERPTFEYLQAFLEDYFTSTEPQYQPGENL

On to `O=P(O)(O)C(O)c1cccc2ccccc12` (stereo unspecified) [[hydroxy(naphthalen-1-yl)methyl]phosphonic acid], for which the IC50 (usually the concentration that inhibits the measured activity by half) is greater than 5 mM.

(Values after BindingDB's records for doi:10.1016/s0960-894x(02)00140-3 (Aventis Pharma, 2002).)
